{"source": "patent US20020039567A1", "about": "“Methods of treating bone or cartilage conditions by the administration of creatine” (priority 1998, published 2002)", "key": {"[1]": {"tested_on": "osteoblasts (monolayer culture)", "assay": "Cell viability (neutral red uptake), monolayer osteoblast cell culture", "type": "cell-based, rat", "procedure": "(§1) This isolation technique is based on the ability of osteoblasts to migrate from bone onto a substratum. Parietal and frontal calvariae (4 per animal) were aseptically explanted from 6 day-old IcoIbm rats. The calvariae were placed in Tyrode's balanced salt solution, calcium and magnesium free (TESS). The periosteum was enzymatically removed with 0.05% trypsin and 0.02% collagenase A (0.76 U/mg) dissolved in TBSS (40 calvaria/20 ml). The calvariae were shaken for 70 minutes in a waterbath at 37° C. They were washed with TESS and then transferred to 60 mm culture dishes (40 calvariae/dish) containing 5 ml of 0.02% collagenase A (0.76 U/mg) in culture medium BGJb Fitton-Jackson modification and placed in the incubator for 4 hours. The calvariae were then washed with culture medium B supplemented with 10% foetal calf serum (FCS). The calvariae were transferred into 60 mm culture dishes (4 frontal and 4 parietal/dish). The growth medium supplemented with 10% FCS and 50 μg/ml ascorbate was completely changed every 48 hours. The culture was kept for 3 weeks.\nAfter 3 weeks the migrated cells were harvested. The dish was washed with TESS, and 5 ml of TESS containing 0.05% trypsin and 0.02% collagenase A (0.76 U/mg) was added. After 1 hour in the incubator, the dish was washed with culture medium BGJb supplemented with 10% FCS. The dishes containing the calvariae and cells were rinsed with serum containing media BGJb. The cells obtained were filtered through a 40 μm nylon mesh to remove bone debris and cell aggregates. The suspended cells were centrifuged at 600 g for 5 minutes. The cell pellet was resuspended in serum containing medium BGJb and centrifuged. The viability of the resuspended cells was examined by the dye exclusion of 0.4% trypan blue, and the cells were counted in a haeinocytometer. The inoculation densities were 2·10^5/10 cm^2 for monolayer and 2·10^5/30 μl for micromasses. The micromass cultures were kept for 1 hour in the incubator before 2 ml growth medium was added.\nAll the cultures were kept at 37° C. in a humidified atmosphere of 5% CO2, 95% air. All culture media were supplemented with 50 μg/ml ascorbate. To analyze the collagen types, 60 μg/ml beta-aminopropionitrile (beta-APN) was added to the culture medium. During cell isolation and inoculation, no ascorbate was used to increase plating efficiency. No antibiotics and no beta-glycerophosphate were added. The media were completely changed every 48 hours (60 mm culture dish 5 ml; 35 mm culture dish 2 ml).\nThe method described in (Lindl et al. 1994) was used.\nThe uptake of NR into lysosomes is […] the metabolic status of the cell.\n0.5 mg Neutral red/ml growth medium, warmed up to 37° C. for at least 2 hours,\n50% ethanol in 1% acetic acid\n1. The cells were incubated in 2 ml/10 cm^2NR solution at 37° C. for 3 hours.\n2. The supernatant was removed,\n3. washed with PBS, at least 3 times, until no crystals were present.\n4. Addition of 4 ml/10 cm^2 extraction buffer.\n5. The absorbance of the supernatant (3 aliquots/dish) was read at 540 nm versus extraction buffer.\n6. If the absorbance was higher than 1, the samples were diluted with extraction buffer.\nThe mean value and the standard deviation consisted of n independent experiments. The values for the individual experiments were gained from the mean of 3 aliquots of the same dish. To compare the treatment, contrasts analysis of variance models were evaluated."}, "[2]": {"tested_on": "embryonic chick femora", "settings": "cited from earlier work"}, "[3]": {"tested_on": "epiphyseal growth plate", "settings": "feeding rats with GPA; cited from earlier work"}, "[4]": {"tested_on": "cultured chondrocytes", "settings": "cited from earlier work"}, "[5]": {"tested_on": "osteoblasts (monolayer culture)", "assay": "Alkaline phosphatase activity (histochemically), monolayer osteoblast cell culture", "type": "cell-based, rat", "settings": "3 weeks", "procedure": "as §1, with “weeks. After 3 weeks the migrated cells were harvested. The dish was washed with TESS, and 5 ml of TESS containing 0.05% trypsin and 0.02% collagenase A (0.76 U/mg) was added. […] The viability of the resuspended cells was examined by the dye exclusion of 0.4% trypan blue, and the cells were counted in a haeinocytometer. […]” for “weeks.”"}}, "data": [{"smiles": "CN(CC(=O)O)C(=N)N", "note": "[creatine]", "values": [{"measurement": "NR uptake (FIG. 1)", "setting": "[1]; 10 mM and 20 mM creatine vs control, 1 and 2 weeks", "value": "no significant difference between the groups"}, {"measurement": "toxic effect (from NR uptake)", "setting": "[1]; 10 mM creatine", "value": "no toxic effect"}, {"measurement": "NR uptake (FIG. 1), difference to control", "setting": "[1]; 10 mM creatine vs control, 3 weeks", "value": "not significant"}, {"measurement": "NR uptake (FIG. 1)", "setting": "[1]; 10 mM creatine, 3 weeks compared to 1 week, p<0.02", "value": "significantly higher"}, {"measurement": "NR uptake (FIG. 1)", "setting": "[1]; 20 mM creatine vs control, 3 weeks, p<0.008", "value": "significantly lowered NR uptake"}, {"measurement": "toxic effect (from NR uptake)", "setting": "[1]; 20 mM creatine, 3 weeks", "value": "some toxic effects on the proliferation of the cells"}, {"measurement": "perichondral ossification in the diaphysis", "setting": "[2]; 0.1 mM in chick embryo extract with 20% horse serum", "value": "accelerated"}, {"measurement": "deposition of calcium in the cartilage matrix of the epiphysis", "setting": "[2]; very crude preparations at 0.1 mM in chick embryo extract with 20% horse serum", "value": "accelerated"}]}, {"smiles": "N=C(N)NCCC(=O)O", "note": "[GPA, beta-guanidinopropionic acid]", "values": [{"measurement": "epiphyseal growth plate morphology", "setting": "[3]", "value": "marked abnormalities"}, {"measurement": "synthesis of pro-a type II and type X collagen", "setting": "[4]", "value": "interferes with the synthesis"}, {"measurement": "cell density around the nodules", "setting": "[5]; GPA groups", "value": "lower than in the control and the creatine groups"}, {"measurement": "staining pattern for the ALP activity", "setting": "[5]; higher magnification, compared with control and creatine groups", "value": "different staining pattern"}]}]}
